system: DU-4475; conditions: 72 h
Procedure, shortened: (§1)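 The plates used were 384-well plates holding compound at 5 concentrations in 10-fold steps across a compound-specific 10,000-fold range, into which breast cancer cell lines were seeded in 20 µl suspension. Following 72 h incubation, CellTox Green fluorescence was read at 485/520 nm, and CellTiter-Glo luminescence was read after 10 min at room temperature. Normalisation on each plate used 0.1 % DMSO and a positive kill control. Dose-response curves gave the EC50, which was censored at the top concentration.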

Compound | EC50, CellTiter-Glo [nM]
Cn1c(Nc2ccc(C(F)(F)F)cc2)nc2cc(Oc3ccnc(-c4ncc(C(F)(F)F)[nH]4)c3)ccc21 [RAF265] | 193
COc1cc([C@@H]2c3cc4c(cc3[C@@H](O[C@@H]3O[C@@H]5CO[C@@H](C)O[C@H]5[C@H](O)[C@H]3O)[C@H]3COC(=O)[C@H]23)OCO4)cc(OC)c1O [Etoposide] | 1260
O=C(CCCCCCC(=O)Nc1ccc([C@H]2O[C@@H](CSc3nc(-c4ccccc4)c(-c4ccccc4)o3)C[C@@H](c3ccc(CO)cc3)O2)cc1)NO [Tubacin] | 1480
CO[C@H]1/C=C\C=C(/C)C(=O)NC2=CC(=O)C(NCCN(C)C)=C(C[C@@H](C)C[C@H](OC)[C@H](O)[C@@H](C)/C=C(\C)[C@@H]1OC(N)=O)C2=O [Alvespimycin] | 34

system: HCC1143; conditions: 72 h
Procedure, shortened: as §1

EC50, CellTiter-Glo [nM] | Compound
145 | CN[C@@H]1C[C@H]2O[C@@](C)([C@@H]1OC)n1c3ccccc3c3c4c(c5c6ccccc6n2c5c31)C(=O)N[C@H]4O [UCN-01]
6400 | O=C(CCCCCCC(=O)Nc1ccc([C@H]2O[C@@H](CSc3nc(-c4ccccc4)c(-c4ccccc4)o3)C[C@@H](c3ccc(CO)cc3)O2)cc1)NO [Tubacin]

Continued, compound first:

Compound | EC50, CellTiter-Glo [nM]
NC(=O)Nc1cc(-c2cccc(F)c2)sc1C(=O)N[C@H]1CCCNC1 [AZD7762] | 361
COc1cc([C@@H]2c3cc4c(cc3[C@@H](O[C@@H]3O[C@@H]5CO[C@@H](C)O[C@H]5[C@H](O)[C@H]3O)[C@H]3COC(=O)[C@H]23)OCO4)cc(OC)c1O [Etoposide] | 1650
N#CCNC(=O)c1ccc(-c2ccnc(Nc3ccc(N4CCOCC4)cc3)n2)cc1 [Momelotinib] | 1570
CO[C@H]1/C=C\C=C(/C)C(=O)NC2=CC(=O)C(NCCN(C)C)=C(C[C@@H](C)C[C@H](OC)[C@H](O)[C@@H](C)/C=C(\C)[C@@H]1OC(N)=O)C2=O [Alvespimycin] | 34.8

system: HCC1599; conditions: 72 h
Procedure, shortened: as §1

EC50, CellTiter-Glo [nM] | Compound
28 | CN[C@@H]1C[C@H]2O[C@@](C)([C@@H]1OC)n1c3ccccc3c3c4c(c5c6ccccc6n2c5c31)C(=O)N[C@H]4O [UCN-01]
3820 | O=C(CCCCCCC(=O)Nc1ccc([C@H]2O[C@@H](CSc3nc(-c4ccccc4)c(-c4ccccc4)o3)C[C@@H](c3ccc(CO)cc3)O2)cc1)NO [Tubacin]

Continued, compound first:

Compound | EC50, CellTiter-Glo [nM]
NC(=O)Nc1cc(-c2cccc(F)c2)sc1C(=O)N[C@H]1CCCNC1 [AZD7762] | 236
COc1cc([C@@H]2c3cc4c(cc3[C@@H](O[C@@H]3O[C@@H]5CO[C@@H](C)O[C@H]5[C@H](O)[C@H]3O)[C@H]3COC(=O)[C@H]23)OCO4)cc(OC)c1O [Etoposide] | 1150
C=C(c1ccc(C(=O)O)cc1)c1cc2c(cc1C)C(C)(C)CCC2(C)C [Bexarotene] | 165
CO[C@H]1/C=C\C=C(/C)C(=O)NC2=CC(=O)C(NCCN(C)C)=C(C[C@@H](C)C[C@H](OC)[C@H](O)[C@@H](C)/C=C(\C)[C@@H]1OC(N)=O)C2=O [Alvespimycin] | 91.5

system: HCC1937; conditions: 72 h
Procedure, shortened: as §1

EC50, CellTiter-Glo [nM] | Compound
> 1000 | Cc1ccc(C(=O)Nc2ccc(CN3CCN(C)CC3)c(C(F)(F)F)c2)cc1C#Cc1cnc2cccnn12 [Ponatinib]
193 | CN[C@@H]1C[C@H]2O[C@@](C)([C@@H]1OC)n1c3ccccc3c3c4c(c5c6ccccc6n2c5c31)C(=O)N[C@H]4O [UCN-01]
2080 | CCCCCCCCCCCCCCCCCCOP(=O)([O-])OC1CC[N+](C)(C)CC1 [Perifosine]
163 | Cn1c(Nc2ccc(C(F)(F)F)cc2)nc2cc(Oc3ccnc(-c4ncc(C(F)(F)F)[nH]4)c3)ccc21 [RAF265]
4670 | O=C(CCCCCCC(=O)Nc1ccc([C@H]2O[C@@H](CSc3nc(-c4ccccc4)c(-c4ccccc4)o3)C[C@@H](c3ccc(CO)cc3)O2)cc1)NO [Tubacin]

Second part, the compound before the results:

Compound | EC50, CellTiter-Glo [nM]
NC(=O)Nc1cc(-c2cccc(F)c2)sc1C(=O)N[C@H]1CCCNC1 [AZD7762] | 593
CO[C@H]1/C=C\C=C(/C)C(=O)NC2=CC(=O)C(NCCN(C)C)=C(C[C@@H](C)C[C@H](OC)[C@H](O)[C@@H](C)/C=C(\C)[C@@H]1OC(N)=O)C2=O [Alvespimycin] | 44.1

system: HDQ-P1; conditions: 72 h
Procedure, shortened: as §1

Compound | EC50, CellTiter-Glo [nM]
NC(=O)Nc1cc(-c2cccc(F)c2)sc1C(=O)N[C@H]1CCCNC1 [AZD7762] | 570
Cc1ccc(C(=O)Nc2ccc(CN3CCN(C)CC3)c(C(F)(F)F)c2)cc1C#Cc1cnc2cccnn12 [Ponatinib] | 220
CN[C@@H]1C[C@H]2O[C@@](C)([C@@H]1OC)n1c3ccccc3c3c4c(c5c6ccccc6n2c5c31)C(=O)N[C@H]4O [UCN-01] | 217
C#Cc1cccc(Nc2ncnc3cc(OCCOC)c(OCCOC)cc23)c1 [Erlotinib] | 28.7
Cn1c(Nc2ccc(C(F)(F)F)cc2)nc2cc(Oc3ccnc(-c4ncc(C(F)(F)F)[nH]4)c3)ccc21 [RAF265] | 108
O=C(CCCCCCC(=O)Nc1ccc([C@H]2O[C@@H](CSc3nc(-c4ccccc4)c(-c4ccccc4)o3)C[C@@H](c3ccc(CO)cc3)O2)cc1)NO [Tubacin] | 3460
CO[C@H]1/C=C\C=C(/C)C(=O)NC2=CC(=O)C(NCCN(C)C)=C(C[C@@H](C)C[C@H](OC)[C@H](O)[C@@H](C)/C=C(\C)[C@@H]1OC(N)=O)C2=O [Alvespimycin] | 30.2
COc1cc2ncnc(Nc3ccc(F)c(Cl)c3)c2cc1NC(=O)/C=C/CN1CCCCC1 [Dacomitinib] | 3.24

system: Hs578T; conditions: 72 h
Procedure, shortened: as §1

Compound | EC50, CellTiter-Glo [nM]
NC(=O)Nc1cc(-c2cccc(F)c2)sc1C(=O)N[C@H]1CCCNC1 [AZD7762] | 467
CN[C@@H]1C[C@H]2O[C@@](C)([C@@H]1OC)n1c3ccccc3c3c4c(c5c6ccccc6n2c5c31)C(=O)N[C@H]4O [UCN-01] | 36.8
Cn1c(Nc2ccc(C(F)(F)F)cc2)nc2cc(Oc3ccnc(-c4ncc(C(F)(F)F)[nH]4)c3)ccc21 [RAF265] | 72.4
COc1cc([C@@H]2c3cc4c(cc3[C@@H](O[C@@H]3O[C@@H]5CO[C@@H](C)O[C@H]5[C@H](O)[C@H]3O)[C@H]3COC(=O)[C@H]23)OCO4)cc(OC)c1O [Etoposide] | 1490
O=C(O)c1ccc(-c2c[nH]c3ncc(-c4ccccc4)cc23)cc1C1CCCC1 | > 10000
N#CCNC(=O)c1ccc(-c2ccnc(Nc3ccc(N4CCOCC4)cc3)n2)cc1 [Momelotinib] | 2240
CO[C@H]1/C=C\C=C(/C)C(=O)NC2=CC(=O)C(NCCN(C)C)=C(C[C@@H](C)C[C@H](OC)[C@H](O)[C@@H](C)/C=C(\C)[C@@H]1OC(N)=O)C2=O [Alvespimycin] | 45.7

Source: the supplement of paper PMC4862054
